Test results reported in patent publication US20190216761A1, “COMPOSITIONS COMPRISING 15-HEPE AND METHODS OF USING THE SAME” (Afimmune Limited, priority 2015, published 2019).
Numbering of substitutions follows the chain as printed. Marks after values point to notes of the source that are not given here.

What was measured:
Assay type in all cases: cell-based
hPPARγ = molecular target: T1, hPPARγ (Homo sapiens, UniProt P37231); assay: PPAR agonist reporter assay (Gal4 hybrid receptor, luciferase)
T1 construct: expressed in transfected cells
T1 sequence (P37231 238-503 limits assumed): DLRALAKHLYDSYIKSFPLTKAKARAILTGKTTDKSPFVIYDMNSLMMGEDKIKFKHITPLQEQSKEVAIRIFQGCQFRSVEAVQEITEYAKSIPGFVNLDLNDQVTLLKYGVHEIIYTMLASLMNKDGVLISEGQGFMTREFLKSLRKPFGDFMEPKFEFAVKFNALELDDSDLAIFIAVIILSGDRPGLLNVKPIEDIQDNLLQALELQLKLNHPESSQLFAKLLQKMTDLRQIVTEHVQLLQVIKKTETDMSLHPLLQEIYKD
Experimental: (§1) This study utilized proprietary reporter cells expressing a hybrid receptor comprising the N-terminal Gal4 DNA binding domain fused to the ligand binding domain of the specific human nuclear receptor (hPPARα, hPPARδ, and hPPARγ) and rat nuclear receptor (rPPARα, rPPARδ, and rPPARγ). The reporter vectors used in this Example comprise the firefly luciferase gene functionally linked to the Gal4 upstream activation sequence.
(§2) Nuclear Receptor assay was performed by dispensing 100 μL of a suspension of Reporter Cells in Cell Recovery Medium (CRM) containing 10% charcoal stripped FBS into each well of a white 96-well plate. Test compounds were diluted using compound screening medium (CSM) containing 10% charcoal stripped FBS to generate “2×-concentration” treatment media. Immediately after this dilution step, 100 μL of each diluted 2×-concentration treatment medium was dispensed (in triplicate) into the Reporter Cell-containing assay wells.
(§3) After incubation at 37° C. for 24 hours, the treatment media was discarded. 100 μL of Luciferase Detection Reagent substrate was added to each well and RLUs were quantified from each well to determine nuclear receptor activities.

rPPARγ = molecular target: T2, rPPARγ (Rattus norvegicus, UniProt O88275); assay: as above
T2 construct: expressed in transfected cells
T2 sequence (O88275 238-503 limits assumed): T1 sequence (P37231 238-503 limits assumed) with S93N, V98I, L226V, Q245H
Experimental: as §1, §2, §3

hPPARα Reporter Cells = assay: Live cell multiplex assay
Experimental: as §1
(§4) Nuclear Receptor assay was performed by suspending Reporter Cells in CRM containing 10% charcoal stripped FBS. 2×-EC80 concentrations of the appropriate reference agonist were then added to the Reporter Cell suspension, and 100 μL of the mixture dispensed into wells of a white 96-well plate. Test compounds were diluted using compound screening medium (CSM) containing 10% charcoal stripped FBS to generate “2×-concentration” treatment media. Immediately after this dilution step, 100 μL of each diluted 2×-concentration treatment medium was dispensed (in triplicate) into the Reporter Cell-containing assay wells.
(§5) After incubation at 37° C. for 24 hours, the treatment media was discarded. Each well was rinsed once with LCM Buffer; LCM substrate was then added. After incubation for 30 minutes at 37° C., fluorescence was measured to determine the relative number of live cells per assay well. LCM substrate was then discarded and 100 μL of Luciferase Detection Reagent substrate was added to each well. RLUs were quantified from each well to determine nuclear receptor activities.

hPPARγ Reporter Cells = assay: Live cell multiplex assay
Experimental: as §1, §4, §5

hPPARδ Reporter Cells = assay: Live cell multiplex assay
Experimental: as §1, §4, §5

rPPARα Reporter Cells = assay: Live cell multiplex assay
Experimental: as §1, §4, §5

rPPARγ Reporter Cells = assay: Live cell multiplex assay
Experimental: as §1, §4, §5

rPPARδ Reporter Cells = assay: Live cell multiplex assay
Experimental: as §1, §4, §5

With `CC/C=C\C[C@H](O)/C=C/C=C\C/C=C\C/C=C\CCCC(=O)OCC` [15-HEPE-EE, 15-HEPE ethyl ester] the “Fold-Activation (vs. 0.10% DMSO) hPPAR-γ” value (hPPARγ; 137 nM) was 1.0 fold, the “Fold-Activation (vs. 0.10% DMSO) hPPAR-γ” value (hPPARγ; 412 nM) was 1.1 fold and the “Fold-Activation (vs. 0.10% DMSO) hPPAR-γ” value (hPPARγ; 1,235 nM) was 1.3 fold. For the same compound, the “Fold-Activation (vs. 0.10% DMSO) hPPAR-γ” value (hPPARγ; 3,704 nM) was 1.5 fold, the “Fold-Activation (vs. 0.10% DMSO) hPPAR-γ” value (hPPARγ; 11,111 nM) was 2.1* fold and the “Fold-Activation (vs. 0.10% DMSO) hPPAR-γ” value (hPPARγ; 33,333 nM) was 3.6* fold. The “Fold-Activation (vs. 0.10% DMSO) hPPAR-γ” value (hPPARγ; 100,000 nM) was 6.1* fold, the “Fold-Activation (vs. 0.10% DMSO) hPPAR-γ” value (hPPARγ; 300,000 nM) was 0.027 fold and the “agonism activity against human PPARγ (in words)” value (hPPARγ; at low to higher doses in the dose response curve) was “moderate agonism activity”. The “Fold-Activation (vs. 0.10% DMSO) rPPAR-γ” value (rPPARγ; 137 nM) was 1.2 fold, the “Fold-Activation (vs. 0.10% DMSO) rPPAR-γ” value (rPPARγ; 412 nM) was 1.2 fold and the “Fold-Activation (vs. 0.10% DMSO) rPPAR-γ” value (rPPARγ; 1,235 nM) was 1.4 fold. The “Fold-Activation (vs. 0.10% DMSO) rPPAR-γ” value (rPPARγ; 3,704 nM) was 1.4 fold, the “Fold-Activation (vs. 0.10% DMSO) rPPAR-γ” value (rPPARγ; 11,111 nM) was 1.8 fold and the “Fold-Activation (vs. 0.10% DMSO) rPPAR-γ” value (rPPARγ; 33,333 nM) was 3.5* fold. For the same compound, the “Fold-Activation (vs. 0.10% DMSO) rPPAR-γ” value (rPPARγ; 100,000 nM) was 10* fold, the “Fold-Activation (vs. 0.10% DMSO) rPPAR-γ” value (rPPARγ; 300,000 nM) was 14* fold and the “agonism activity against rat PPARγ (in words)” value (rPPARγ; at medium to higher doses in the dose response curve) was “mild to moderate agonism activity”. The “% Live cells vs. 0.10% DMSO, hPPAR-α” value (hPPARα Reporter Cells; 137 nM) was 96%, the “% Live cells vs. 0.10% DMSO, hPPAR-α” value (hPPARα Reporter Cells; 412 nM) was 94% and the “% Live cells vs. 0.10% DMSO, hPPAR-α” value (hPPARα Reporter Cells; 1,235 nM) was 119%. The “% Live cells vs. 0.10% DMSO, hPPAR-α” value (hPPARα Reporter Cells; 3,704 nM) was 120%, the “% Live cells vs. 0.10% DMSO, hPPAR-α” value (hPPARα Reporter Cells; 11,111 nM) was 117% and the “% Live cells vs. 0.10% DMSO, hPPAR-α” value (hPPARα Reporter Cells; 33,333 nM) was 115%. For the same compound, the “% Live cells vs. 0.10% DMSO, hPPAR-α” value (hPPARα Reporter Cells; 100,000 nM) was 69%, the “% Live cells vs. 0.10% DMSO, hPPAR-α” value (hPPARα Reporter Cells; 300,000 nM) was 35% and the “% Live cells vs. 0.10% DMSO, hPPAR-γ” value (hPPARγ Reporter Cells; 137 nM) was 86%. For the same compound, the “% Live cells vs. 0.10% DMSO, hPPAR-γ” value (hPPARγ Reporter Cells; 412 nM) was 99%, the “% Live cells vs. 0.10% DMSO, hPPAR-γ” value (hPPARγ Reporter Cells; 1,235 nM) was 101% and the “% Live cells vs. 0.10% DMSO, hPPAR-γ” value (hPPARγ Reporter Cells; 3,704 nM) was 101%. The “% Live cells vs. 0.10% DMSO, hPPAR-γ” value (hPPARγ Reporter Cells; 11,111 nM) was 100%, the “% Live cells vs. 0.10% DMSO, hPPAR-γ” value (hPPARγ Reporter Cells; 33,333 nM) was 99% and the “% Live cells vs. 0.10% DMSO, hPPAR-γ” value (hPPARγ Reporter Cells; 100,000 nM) was 91%. For the same compound, the “% Live cells vs. 0.10% DMSO, hPPAR-γ” value (hPPARγ Reporter Cells; 300,000 nM) was 4.9%, the “% Live cells vs. 0.10% DMSO, hPPAR-δ” value (hPPARδ Reporter Cells; 137 nM) was 95% and the “% Live cells vs. 0.10% DMSO, hPPAR-δ” value (hPPARδ Reporter Cells; 412 nM) was 98%. For the same compound, the “% Live cells vs. 0.10% DMSO, hPPAR-δ” value (hPPARδ Reporter Cells; 1,235 nM) was 99%, the “% Live cells vs. 0.10% DMSO, hPPAR-δ” value (hPPARδ Reporter Cells; 3,704 nM) was 100% and the “% Live cells vs. 0.10% DMSO, hPPAR-δ” value (hPPARδ Reporter Cells; 11,111 nM) was 101%. For the same compound, the “% Live cells vs. 0.10% DMSO, hPPAR-δ” value (hPPARδ Reporter Cells; 33,333 nM) was 101%, the “% Live cells vs. 0.10% DMSO, hPPAR-δ” value (hPPARδ Reporter Cells; 100,000 nM) was 101% and the “% Live cells vs. 0.10% DMSO, hPPAR-δ” value (hPPARδ Reporter Cells; 300,000 nM) was 7.7%. For the same compound, the “% Live cells vs. 0.10% DMSO, rPPAR-α” value (rPPARα Reporter Cells; 137 nM) was 89%, the “% Live cells vs. 0.10% DMSO, rPPAR-α” value (rPPARα Reporter Cells; 412 nM) was 98% and the “% Live cells vs. 0.10% DMSO, rPPAR-α” value (rPPARα Reporter Cells; 1,235 nM) was 97%. The “% Live cells vs. 0.10% DMSO, rPPAR-α” value (rPPARα Reporter Cells; 3,704 nM) was 99%, the “% Live cells vs. 0.10% DMSO, rPPAR-α” value (rPPARα Reporter Cells; 11,111 nM) was 99% and the “% Live cells vs. 0.10% DMSO, rPPAR-α” value (rPPARα Reporter Cells; 33,333 nM) was 98%. The “% Live cells vs. 0.10% DMSO, rPPAR-α” value (rPPARα Reporter Cells; 100,000 nM) was 76%, the “% Live cells vs. 0.10% DMSO, rPPAR-α” value (rPPARα Reporter Cells; 300,000 nM) was 3.1% and the “% Live cells vs. 0.10% DMSO, rPPAR-γ” value (rPPARγ Reporter Cells; 137 nM) was 98%. The “% Live cells vs. 0.10% DMSO, rPPAR-γ” value (rPPARγ Reporter Cells; 412 nM) was 101%, the “% Live cells vs. 0.10% DMSO, rPPAR-γ” value (rPPARγ Reporter Cells; 1,235 nM) was 101% and the “% Live cells vs. 0.10% DMSO, rPPAR-γ” value (rPPARγ Reporter Cells; 3,704 nM) was 100%. The “% Live cells vs. 0.10% DMSO, rPPAR-γ” value (rPPARγ Reporter Cells; 11,111 nM) was 101%, the “% Live cells vs. 0.10% DMSO, rPPAR-γ” value (rPPARγ Reporter Cells; 33,333 nM) was 101% and the “% Live cells vs. 0.10% DMSO, rPPAR-γ” value (rPPARγ Reporter Cells; 100,000 nM) was 99%. The “% Live cells vs. 0.10% DMSO, rPPAR-γ” value (rPPARγ Reporter Cells; 300,000 nM) was 91%, the “% Live cells vs. 0.10% DMSO, rPPAR-δ” value (rPPARδ Reporter Cells; 137 nM) was 99% and the “% Live cells vs. 0.10% DMSO, rPPAR-δ” value (rPPARδ Reporter Cells; 412 nM) was 97%. The “% Live cells vs. 0.10% DMSO, rPPAR-δ” value (rPPARδ Reporter Cells; 1,235 nM) was 98%, the “% Live cells vs. 0.10% DMSO, rPPAR-δ” value (rPPARδ Reporter Cells; 3,704 nM) was 99% and the “% Live cells vs. 0.10% DMSO, rPPAR-δ” value (rPPARδ Reporter Cells; 11,111 nM) was 100%. For the same compound, the “% Live cells vs. 0.10% DMSO, rPPAR-δ” value (rPPARδ Reporter Cells; 33,333 nM) was 100%, the “% Live cells vs. 0.10% DMSO, rPPAR-δ” value (rPPARδ Reporter Cells; 100,000 nM) was 99% and the “% Live cells vs. 0.10% DMSO, rPPAR-δ” value (rPPARδ Reporter Cells; 300,000 nM) was 5.0%.
